Experimental data from patent publication US8507690B2, “Thiazole derivative and use thereof as VAP-1 inhibitor” (R-Tech Ueno, Ltd., priority 2008, dated 2013).

What was measured:
[1] = molecular target: T1, human VAP-1 enzyme (SSAO) (Homo sapiens, UniProt Q16853); assay: Enzyme activity inhibitory effect on human VAP-1 enzyme (SSAO), radiochemical-enzyme assay with 14C-benzylamine; type: biochemical; settings: human VAP-1 (SSAO) cell extract, 14C-benzylamine 1×10^−5 mol/l, 37° C. 2 hours
T1 construct: made in house; cell extract used
T1 sequence (Q16853 1-763): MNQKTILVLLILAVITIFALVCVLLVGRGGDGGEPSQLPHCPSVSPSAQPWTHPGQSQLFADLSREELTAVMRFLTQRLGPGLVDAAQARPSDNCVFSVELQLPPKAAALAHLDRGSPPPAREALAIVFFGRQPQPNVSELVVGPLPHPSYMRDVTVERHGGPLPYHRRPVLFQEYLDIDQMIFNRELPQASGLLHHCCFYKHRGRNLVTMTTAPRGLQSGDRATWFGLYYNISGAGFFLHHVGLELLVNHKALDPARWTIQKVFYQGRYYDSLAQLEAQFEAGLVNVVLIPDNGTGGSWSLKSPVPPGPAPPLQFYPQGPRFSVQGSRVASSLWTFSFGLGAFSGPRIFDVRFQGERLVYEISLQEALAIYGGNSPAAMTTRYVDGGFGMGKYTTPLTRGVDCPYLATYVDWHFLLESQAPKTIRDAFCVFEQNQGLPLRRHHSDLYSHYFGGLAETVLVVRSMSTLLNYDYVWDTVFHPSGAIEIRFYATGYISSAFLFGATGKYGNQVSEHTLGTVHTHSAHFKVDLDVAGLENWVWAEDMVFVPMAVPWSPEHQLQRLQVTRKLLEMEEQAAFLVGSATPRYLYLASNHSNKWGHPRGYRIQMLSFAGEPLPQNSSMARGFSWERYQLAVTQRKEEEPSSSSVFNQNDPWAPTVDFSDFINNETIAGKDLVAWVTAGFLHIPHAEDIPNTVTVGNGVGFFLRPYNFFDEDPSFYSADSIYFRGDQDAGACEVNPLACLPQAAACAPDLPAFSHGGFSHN
Experimental: (§1) The compounds of the present invention obtained in Production Examples were examined for the enzyme activity inhibitory effect on human and rat VAP-1 enzyme (SSAO) by the following method.
(§2) The VAP-1 enzyme (SSAO) activity in both human and rat was measured by a radiochemical-enzyme assay using ^14C-benzylamine as an artificial substrate. Human or rat VAP-1 was cloned from the cDNA library and expressed in a cell. The cell extract was preincubated with a test compound solution (final concentration 1×10^−7-1×10^−11 mol/l) at room temperature for 20 minutes. Then, ^14C-benzylamine (final concentration 1×10^−5 mol/l) was added, and the mixture was incubated at a final volume of 200 μl at 37° C. for 2 hours. The enzyme reaction was stopped by addition of 2 mol/l (200 μl) citric acid. The oxidation product was extracted with 1 ml toluene/ethyl acetate (1:1), and the radioactivity thereof was measured by a liquid scintillation counter.

[2] = molecular target: T2, rat VAP-1 enzyme (SSAO) (Rattus norvegicus, UniProt O08590); assay: Enzyme activity inhibitory effect on rat VAP-1 enzyme (SSAO), radiochemical-enzyme assay with 14C-benzylamine; type: biochemical; settings: rat VAP-1 (SSAO) cell extract, 14C-benzylamine 1×10^−5 mol/l, 37° C. 2 hours
T2 construct: made in house; cell extract used
T2 sequence (O08590 1-763): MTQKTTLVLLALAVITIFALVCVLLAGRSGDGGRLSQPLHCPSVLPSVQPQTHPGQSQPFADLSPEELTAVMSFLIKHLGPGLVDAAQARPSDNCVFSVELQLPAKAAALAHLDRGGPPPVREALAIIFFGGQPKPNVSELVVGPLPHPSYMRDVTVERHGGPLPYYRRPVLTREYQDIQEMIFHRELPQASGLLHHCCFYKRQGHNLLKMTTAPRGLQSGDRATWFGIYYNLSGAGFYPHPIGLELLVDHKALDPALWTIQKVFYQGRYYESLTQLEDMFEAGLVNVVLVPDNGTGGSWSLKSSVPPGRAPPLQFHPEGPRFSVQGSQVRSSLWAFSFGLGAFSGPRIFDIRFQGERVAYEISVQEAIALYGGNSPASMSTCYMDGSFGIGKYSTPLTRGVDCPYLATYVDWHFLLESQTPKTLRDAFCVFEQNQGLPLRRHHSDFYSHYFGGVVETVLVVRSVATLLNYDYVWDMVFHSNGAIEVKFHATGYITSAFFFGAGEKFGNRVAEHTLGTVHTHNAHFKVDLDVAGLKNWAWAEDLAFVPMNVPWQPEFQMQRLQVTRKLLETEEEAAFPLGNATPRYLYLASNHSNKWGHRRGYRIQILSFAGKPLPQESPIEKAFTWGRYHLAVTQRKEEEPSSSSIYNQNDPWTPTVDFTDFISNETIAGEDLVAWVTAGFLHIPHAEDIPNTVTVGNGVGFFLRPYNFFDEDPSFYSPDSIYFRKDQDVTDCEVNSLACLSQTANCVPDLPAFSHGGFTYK
Experimental: as §1, §2

With `CC(=O)Nc1nc(CCc2csc(CCCOC(=O)NN)c2)cs1.Cl` [Production Example 15, 3-(4-{2-[2-(acetylamino)-1,3-thiazol-4-yl]ethyl}thiophen-2-yl)propyl hydrazinecarboxylate hydrochloride] as the compound, how does the IC50 [1] read?
The IC50 was 13.4 nM.

What about the IC50 [2] of the same compound?
Its IC50 is 0.6 nM.

What about the melting point of the same compound?
Its melting point is 150 to 153 °C.

With `CC(=O)Nc1nc(CCc2cc(CCCOC(=O)NN)cs2)cs1.Cl` [Production Example 16, 3-(5-{2-[2-(acetylamino)-1,3-thiazol-4-yl]ethyl}thiophen-3-yl)propyl hydrazinecarboxylate hydrochloride] as the compound, how does the IC50 [1] read?
The IC50 was 16.7 nM.

And the IC50 [2]?
Its IC50 is 10.5 nM.

What about the melting point of the same compound?
The melting point was 98 to 102 °C.

Which IC50 [1] does the source give for `CC(=O)Nc1nc(CCc2cc(C)c(CCCOC(=O)NN)s2)cs1.Cl` [Production Example 17, 3-(5-{2-[2-(acetylamino)-1,3-thiazol-4-yl]ethyl}-3-methylthiophen-2-yl)propyl hydrazinecarboxylate hydrochloride] here?
The IC50 was 68.7 nM.

What about the IC50 [2] of the same compound?
Its IC50 is 5 nM.

What about the melting point of the same compound?
Its melting point is 111 to 115 °C.

With `CC(=O)Nc1nc(CCc2ccc(CNC(=O)NN)cc2)cs1.Cl` [Production Example 18, N-(4-{2-[2-(acetylamino)-1,3-thiazol-4-yl]ethyl}benzyl)hydrazinecarboxamide hydrochloride] as the compound, how does the IC50 [1] read?
Its IC50 is 4 nM.

What about the IC50 [2] of the same compound?
The IC50 was 1.3 nM.

What about the melting point of the same compound?
Its melting point is 167 to 169 °C.

With `CC(=O)Nc1nc(CCc2ccc(CCNC(=O)NN)cc2)cs1.Cl` [Production Example 19, N-[2-(4-{2-[2-(acetylamino)-1,3-thiazol-4-yl]ethyl}phenyl)ethyl]hydrazinecarboxamide hydrochloride] as the compound, how does the IC50 [1] read?
The IC50 was 12.2 nM.

What about the IC50 [2] of the same compound?
Its IC50 is 2.3 nM.

What about the melting point of the same compound?
The melting point was 171 to 173 °C.

Which IC50 [1] does the source give for `CC(=O)Nc1nc(CCc2ccc(CNC(=O)NN)c(F)c2)cs1.Cl` [Production Example 20, N-(4-{2-[2-(acetylamino)-1,3-thiazol-4-yl]ethyl}-2-fluorobenzyl)hydrazinecarboxamide hydrochloride] here?
Its IC50 is 2.8 nM.

And the IC50 [2]?
Its IC50 is 1.6 nM.

And the melting point?
The melting point was 172 to 175 °C.

Which results are given for `CC(=O)Nc1nc(C(=O)Oc2ccc(CCNC(=O)NN)cc2)cs1.Cl` [Production Example 26, 4-{2-[(hydrazinocarbonyl)amino]ethyl}phenyl 2-(acetylamino)-1,3-thiazole-4-carboxylate hydrochloride]?
IC50 [1]: 13.3 nM; IC50 [2]: 3.3 nM; melting point: 204 to 207 °C

For `CC(=O)Nc1nc(CCc2cccc(CNC(=O)NN)c2)cs1.Cl` [Production Example 27, N-(3-{2-[2-(acetylamino)-1,3-thiazol-4-yl]ethyl}benzyl)hydrazinecarboxamide hydrochloride], which IC50 [1] is on record?
The IC50 was 2.1 nM.

And the IC50 [2]?
The IC50 was 0.6 nM.

What about the melting point of the same compound?
The melting point was 123 to 127 °C.

Which IC50 [1] does the source give for `CC(=O)Nc1nc(CCc2cccc(CCNC(=O)NN)c2)cs1.Cl` [Production Example 28, N-[2-(3-{2-[2-(acetylamino)-1,3-thiazol-4-yl]ethyl}phenyl)ethyl]hydrazinecarboxamide hydrochloride] here?
The IC50 was 44.3 nM.

What about the IC50 [2] of the same compound?
Its IC50 is 5.6 nM.

What about the melting point of the same compound?
The melting point was 176 to 179 °C.

Which results are given for `CC(=O)Nc1nc(CCc2ccc(CNC(=O)NN)s2)cs1.Cl` [Production Example 29, N-[2-(5-{2-[2-(acetylamino)-1,3-thiazol-4-yl]ethyl}thiophen-2-yl)methyl]hydrazinecarboxamide hydrochloride]?
IC50 [1]: 1.8 nM; IC50 [2]: 0.6 nM; melting point: 158 to 161 °C

Which results are given for `CC(=O)Nc1nc(CCc2ccc(CCNC(=O)NN)s2)cs1.Cl` [Production Example 30, N-[2-(5-{2-[2-(acetylamino)-1,3-thiazol-4-yl]ethyl}thiophen-2-yl)ethyl]hydrazinecarboxamide hydrochloride]?
IC50 [1]: 18.8 nM; IC50 [2]: 3.8 nM; melting point: 178 to 181 °C

For `CC(=O)Nc1nc(CCc2cc(C)c(CCCNC(=O)NN)s2)cs1.Cl` [Production Example 33, N-[3-(5-{2-[2-(acetylamino)-1,3-thiazol-4-yl]ethyl}-3-methylthiophen-2-yl)propyl]hydrazinecarboxamide hydrochloride], which IC50 [1] is on record?
The IC50 was 108 nM.

What about the IC50 [2] of the same compound?
The IC50 was 2.1 nM.

What about the melting point of the same compound?
The melting point was 152 to 157 °C.

For `CC(=O)Nc1nc(CCc2ccc(CSC(=O)NN)cc2)cs1.Cl` [Production Example 34, S-(4-{2-[2-(acetylamino)-1,3-thiazol-4-yl]ethyl}benzyl) hydrazinecarbothioate hydrochloride], which IC50 [1] is on record?
The IC50 was 23.2 nM.

And the IC50 [2]?
Its IC50 is 4.6 nM.

What about the melting point of the same compound?
Its melting point is 149 to 158 °C.
